Test results published in ChEMBL document CHEMBL1201862, “PubChem BioAssay data set” (2004).
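Cells were grown in 96-well plates and exposed to each compound for 48 hours at five concentrations; endpoints were interpolated linearly between bracketing concentrations, or set to the highest concentration if not reached. GI50 = concentration required for 50% inhibition of growth.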 Activity calls are given as the source filed them. No stated cut-off is given here; in the data, active = GI50 up to about 1.1 µM and inactive = higher.

How the values were obtained:
Assay in all cases: NCI-60 cell line screen, 48 h
UACC-62 = system: UACC-62
K562 = system: K562
MOLT-4 = system: MOLT-4
DU-145 = system: DU-145
MDA-MB-231 = system: MDA-MB-231
NCI/ADR-RES = system: NCI/ADR-RES
SR = system: SR
PC-3 = system: PC-3
HCT-15 = system: HCT-15
NCI-H226 = system: NCI-H226
A549 = system: A549
OVCAR-4 = system: OVCAR-4
HL-60 = system: HL-60
SF-539 = system: SF-539

Row | Structure (SMILES) | GI50 (UACC-62) | GI50 (K562) | GI50 (MOLT-4) | GI50 (DU-145) | GI50 (MDA-MB-231) | GI50 (NCI/ADR-RES) | GI50 (SR) | GI50 (PC-3) | GI50 (HCT-15) [µM] | GI50 (NCI-H226) | GI50 (A549) | GI50 (OVCAR-4) | GI50 (HL-60) | GI50 (SF-539)
1 | C=CCNS(=O)(=O)c1ncnc2[nH]cnc12 | > 100 µM (inactive) | 10.5 µM (inactive) | 14.2 µM (inactive) | > 100 µM (inactive) | > 100 µM (inactive) | > 100 µM (inactive) | 69.8 µM (inactive) | > 100 µM (inactive) | > 100 | > 100 µM (inactive) | > 100 µM (inactive) | > 100 µM (inactive) | – | –
2 | Cc1ccc(S[C@@H](C)[C@@](O)(CF)CN(Cc2ccccc2)C(=O)C(F)(F)F)cc1 | 13.8 µM (inactive) | – | – | 26.9 µM (inactive) | 22.4 µM (inactive) | 20.6 µM (inactive) | – | 29.1 µM (inactive) | 17.1 | – | 14.8 µM (inactive) | 14.9 µM (inactive) | 19.2 µM (inactive) | –
3 | CCOC(=O)Nc1cc(NC(/C=N/NC(C)=O)C(=O)OCC)c(OC)cc1NC(C)=O (centres undefined) | > 100 µM (inactive) | > 100 µM (inactive) | > 100 µM (inactive) | > 100 µM (inactive) | > 100 µM (inactive) | > 100 µM (inactive) | > 100 µM (inactive) | > 100 µM (inactive) | > 100 | > 100 µM (inactive) | > 100 µM (inactive) | > 100 µM (inactive) | – | –
4 | CCOC(=O)c1c[nH]c2cc3c(cc2c1=O)CCS3 | > 100 µM (inactive) | > 100 µM (inactive) | > 100 µM (inactive) | > 100 µM (inactive) | > 100 µM (inactive) | > 100 µM (inactive) | – | > 100 µM (inactive) | > 100 | 50.4 µM (inactive) | > 100 µM (inactive) | > 100 µM (inactive) | 91 µM (inactive) | > 100 µM (inactive)
5 | COC(=O)c1nsc(OC)c1Cl | > 100 µM (inactive) | > 100 µM (inactive) | > 100 µM (inactive) | > 100 µM (inactive) | > 100 µM (inactive) | > 100 µM (inactive) | – | > 100 µM (inactive) | > 100 | > 100 µM (inactive) | > 100 µM (inactive) | > 100 µM (inactive) | > 100 µM (inactive) | > 100 µM (inactive)
6 | CCC1OC2C(CC=C(C)C)=C3OC(C)(O)C(C)(CC)C(=O)C3=C3OC(=O)C=C1C32 (centres undefined) | 20.7 µM (inactive) | 26 µM (inactive) | 20.2 µM (inactive) | 58.6 µM (inactive) | 15.5 µM (inactive) | 27.8 µM (inactive) | – | 38.8 µM (inactive) | 32.4 | 25.9 µM (inactive) | 22.6 µM (inactive) | 29.5 µM (inactive) | – | 8.55 µM (inactive)
7 | C=C(C)C1CCC2=CC(CC3(C)OC3C3=CC(C(=O)OC)=C(C1)O3)OC2=O (centres undefined) | – | > 100 µM (inactive) | 36.9 µM (inactive) | > 100 µM (inactive) | 93.3 µM (inactive) | > 100 µM (inactive) | 83.2 µM (inactive) | > 100 µM (inactive) | > 100 | > 100 µM (inactive) | > 100 µM (inactive) | – | > 10 µM (inactive) | 73.3 µM (inactive)
8 | C=CCn1c(-c2ccc([N+](=O)[O-])cc2)csc1=N | 37.7 µM (inactive) | 9.59 µM (inactive) | – | 43.8 µM (inactive) | 16.8 µM (inactive) | 44.3 µM (inactive) | – | 48.1 µM (inactive) | 64.7 | 41.6 µM (inactive) | 35.5 µM (inactive) | 42.8 µM (inactive) | 18.9 µM (inactive) | –
9 | COc1cc(C2c3cc4c(cc3C(O)C3CCC(=O)N23)OCO4)cc(OC)c1OC (centres undefined) | 40.8 µM (inactive) | 26.5 µM (inactive) | 32.2 µM (inactive) | 51.8 µM (inactive) | > 100 µM (inactive) | 53 µM (inactive) | 39.9 µM (inactive) | 54.3 µM (inactive) | 31 | 37.5 µM (inactive) | 39.3 µM (inactive) | – | 17.1 µM (inactive) | > 10 µM (inactive)
10 | C=C1C(=O)OC2/C=C(\C)C(=O)CC3OC(C)(C)OC3(C)CC(OC(=O)/C(C)=C/C)C12 (centres undefined) | 9.98 µM (inactive) | 4.05 µM (inactive) | 6.61 µM (inactive) | 19.4 µM (inactive) | 23.6 µM (inactive) | – | 3.05 µM (inactive) | 25.8 µM (inactive) | 4.49 | 23.4 µM (inactive) | 48.8 µM (inactive) | 17.6 µM (inactive) | 3.26 µM (inactive) | 17.1 µM (inactive)
11 | Cc1nc(-[n+]2nc(-c3ccncc3)nn2-c2ccccc2)sc1C | 8.36 µM (inactive) | 4.91 µM (inactive) | 4.72 µM (inactive) | 36.2 µM (inactive) | 32.1 µM (inactive) | 84.5 µM (inactive) | > 100 µM (inactive) | 15.5 µM (inactive) | 16.4 | 32.1 µM (inactive) | 30.3 µM (inactive) | – | 57.5 µM (inactive) | 8.53 µM (inactive)
12 | CCCc1c(OC)c(=O)c2c(OC)cc(OC)c3c4c(OC)cc(OC)c5c(=O)c(OC)c(CCC)c(c1c23)c54 | 11.9 µM (inactive) | – | 7.91 µM (inactive) | 12.2 µM (inactive) | 4.38 µM (inactive) | 21.2 µM (inactive) | – | – | 12.8 | 16.2 µM (inactive) | 19.4 µM (inactive) | 13.3 µM (inactive) | 2.77 µM (inactive) | 15.1 µM (inactive)
13 | COc1ccc2c(c1)SC1=Nc3sc4cc(OC)ccc4[n+]3CN12 | 11.7 µM (inactive) | 4.16 µM (inactive) | 4.62 µM (inactive) | 29 µM (inactive) | 29 µM (inactive) | 99.3 µM (inactive) | 5.83 µM (inactive) | 36.5 µM (inactive) | 86.1 | – | 29.1 µM (inactive) | – | 9.29 µM (inactive) | 42.2 µM (inactive)
14 | O=C1C[C@H]2[C@@H](O1)[C@@H](O)CN1C(=O)c3ccccc3[C@H]21 | > 100 µM (inactive) | > 100 µM (inactive) | > 100 µM (inactive) | > 100 µM (inactive) | > 100 µM (inactive) | > 100 µM (inactive) | > 100 µM (inactive) | > 100 µM (inactive) | > 100 | > 100 µM (inactive) | > 100 µM (inactive) | > 100 µM (inactive) | – | > 100 µM (inactive)
15 | CCCN(CCc1ccc(-c2ccccc2)cc1)CCc1ccc2nn[nH]c2c1 | 9.23 µM (inactive) | 2.94 µM (inactive) | 3.75 µM (inactive) | 9.25 µM (inactive) | 13.6 µM (inactive) | 14.7 µM (inactive) | 3.74 µM (inactive) | 9.44 µM (inactive) | 7.76 | 15.8 µM (inactive) | 13.1 µM (inactive) | 14.6 µM (inactive) | – | 10.7 µM (inactive)
16 | CCC1(CC)SCc2nc3ccccc3n21 | 39.4 µM (inactive) | 18.9 µM (inactive) | 22.8 µM (inactive) | 50 µM (inactive) | 29.6 µM (inactive) | 25.6 µM (inactive) | – | 13.8 µM (inactive) | 36.2 | 33.4 µM (inactive) | 35.9 µM (inactive) | 20.6 µM (inactive) | 26 µM (inactive) | 54.3 µM (inactive)
17 | O=S(=O)(c1ccccc1)n1c2cc3cccnc3nc2c2cccnc21 | – | 17.3 µM (inactive) | 45.3 µM (inactive) | – | > 100 µM (inactive) | > 100 µM (inactive) | 10.9 µM (inactive) | 97.9 µM (inactive) | 71.3 | > 100 µM (inactive) | > 100 µM (inactive) | 72.3 µM (inactive) | 17.9 µM (inactive) | –
18 | Oc1ccc(-c2nn3c(CCCCCCCCc4nnc5sc(-c6ccc(O)cc6)nn45)nnc3s2)cc1 | > 100 µM (inactive) | > 100 µM (inactive) | 95.7 µM (inactive) | > 100 µM (inactive) | > 100 µM (inactive) | > 100 µM (inactive) | > 100 µM (inactive) | > 100 µM (inactive) | > 100 | > 100 µM (inactive) | > 100 µM (inactive) | > 100 µM (inactive) | – | > 100 µM (inactive)
19 | Cc1cccc(N/C(=C(/C(Cl)=C(Cl)Cl)[N+](=O)[O-])n2nnc3ccccc32)c1 | 15.5 µM (inactive) | 35 µM (inactive) | 88.3 µM (inactive) | – | 13.3 µM (inactive) | 19.7 µM (inactive) | – | 16.6 µM (inactive) | 18.4 | 12.9 µM (inactive) | 18 µM (inactive) | 19.5 µM (inactive) | – | 15.8 µM (inactive)
20 | CCOC(=O)c1c(O)cc(=O)[nH]c1N1CCOCC1 | > 100 µM (inactive) | > 100 µM (inactive) | > 100 µM (inactive) | > 100 µM (inactive) | – | > 100 µM (inactive) | > 100 µM (inactive) | > 100 µM (inactive) | > 100 | > 100 µM (inactive) | > 100 µM (inactive) | – | – | > 100 µM (inactive)
21 | COc1cccc(C(NC2=NCCC=N2)c2cc3c(cc2O)OCO3)c1O (centres undefined) | 23.3 µM (inactive) | 17.9 µM (inactive) | 23.6 µM (inactive) | > 100 µM (inactive) | 23.6 µM (inactive) | – | 11.6 µM (inactive) | 29.1 µM (inactive) | 14.1 | 43.5 µM (inactive) | 41.1 µM (inactive) | – | 8.93 µM (inactive) | 25.8 µM (inactive)
22 | Cc1ncc([N+](=O)[O-])n1CCNC(=O)Cn1ccnc1[N+](=O)[O-] | > 100 µM (inactive) | > 100 µM (inactive) | > 100 µM (inactive) | > 100 µM (inactive) | > 100 µM (inactive) | > 100 µM (inactive) | > 100 µM (inactive) | > 100 µM (inactive) | > 100 | > 100 µM (inactive) | > 100 µM (inactive) | – | > 100 µM (inactive) | > 100 µM (inactive)
23 | COc1ccc(-c2cc(=O)c3c(OC)c(OC)c(OC)c(OC)c3o2)cc1 [TANGERETIN] | 22.4 µM (inactive) | 37.8 µM (inactive) | 64.6 µM (inactive) | 85.5 µM (inactive) | 28.8 µM (inactive) | 23.7 µM (inactive) | > 100 µM (inactive) | – | 35 | 64.7 µM (inactive) | 51.6 µM (inactive) | 46.1 µM (inactive) | 34.4 µM (inactive) | > 100 µM (inactive)
